Key:
Type in all cases: in vivo, C57BL/6 J mice
[1] = system: choroidal neovascularization (CNV) mouse model; assay: Laser-induced choroidal neovascularization (CNV) mouse model of wet AMD: size of neovascularization (FFA, Isolectin B4 staining); conditions: 7 days after laser; for size of neovascularization compared to the PBS control group: NMN/NR 500 mg per kg i.p. daily for 10 days, Aflibercept intravitreal, FFA and Isolectin B4 staining, p<0.001 vs PBS
Method: (§1) In this study, 8-week-old (18-20 g) C57BL/6 J adult mice were used. The mice were maintained according to the guidelines for the use of animals in ophthalmic and vision research set forth by the Association for Research in Vision and Ophthalmology (ARVO). All animal experiments were approved by the Institutional Animal Care and Use Committee (IACUC) of Yonsei University College of Medicine (IACUC number: 2022-0279). C57BL/6 J mice were maintained on a 12:12 hour light/dark cycle.
(§2) Mice were anesthetized using a 1:1 mixture of tiletamine and zolazepam (15 mg per kg body weight) along with Xylazine hydrochloride (10 mg per kg body weight). The pupils were dilated using Phenylephrine (0.5%) and tropicamide (0.5%). During the anesthesia and pupil dilation, a heating pad was used to maintain the body temperature at 37° C.
(§3) After confirming pupil dilation, the mice were positioned on the support of the laser device (GYC-1000 Specifications, 532 nm). A drop of 2% Hypromellose solution was placed on the corneal surface, and a glass cover slip was positioned to contact the cornea for visualization of the fundus. Additionally, the height and distance of the support were adjusted to ensure the laser was accurately positioned on the retina.
(§4) The settings for the laser used in the experiment were as follows: output: 150 mW/spot size: 50 μm, time: 50 ms. After positioning the optic nerve in the center, the laser direction was indicated using a clock face, applying a total of 4 laser shocks at the 3 o'clock, 6 o'clock, 9 o'clock, and 12 o'clock positions, once each. The successful performance of the laser shock was confirmed by the generation of bubbles in the retina, with no hemorrhage observed in the retina.
(§5) To compare the choroidal neovascularization (CNV) induced by the laser shock, mice were sacrificed 7 days after the laser shock, and to evaluate the fibrosis induced by the laser shock in the sub-retinal area, mice were sacrificed 4 weeks after the laser shock.
In this study, Nicotinamide mononucleotide (NMN) purchased from ORIENTAL YEAST CO and Nicotinamide riboside (NR) purchased from ChromaDex were used. Starting three days before the creation of the laser-induced mouse model, NMN and NR were administered intraperitoneally daily at a concentration of 500 mg per kg of body weight. […]
After the staining process was completed, the flat-mounted tissue was spread on the slide, a drop of mounting media was applied, and a glass cover was placed over it. Fluorescent images were taken using a fluorescence microscope (Olympus; BX43).
(§6) The size of neovascularization and fibrotic areas was measured using ImageJ software. […] Then, a threshold was applied to measure the size, followed by quantification of pixels. […]

[2] = system: senescence markers p16INK4a, p21CIP1, γ-H2AX, p53 and SA-β-gal in retinal pigment epithelium/choroid/sclera complex; assay: Senescence phenotype in laser-induced neovascular wet AMD model (SA-β-gal staining, immunofluorescence of senescence markers)
Method: as §1, §2, §3, §4
(§7) In this study, Nicotinamide mononucleotide (NMN) purchased from ORIENTAL YEAST CO and Nicotinamide riboside (NR) purchased from ChromaDex were used. Starting three days before the creation of the laser-induced mouse model, NMN and NR were administered intraperitoneally daily at a concentration of 500 mg per kg of body weight.
(§8) Mice were sacrificed using carbon dioxide, and the extracted eyeballs were fixed in 1% paraformaldehyde for 1 hour. After fixation, they were sequentially treated with 10%, 20%, and 30% sucrose solutions for 1 hour each. For sectioning, the eyeballs were positioned so that the connection between the optic nerve and the center of the cornea was horizontally aligned using OCT compound, and rapid freezing was performed using liquid nitrogen vapor. The eyeballs were stored at −70° C.
(§9) The eyeballs were sectioned to a thickness of […], and thereafter, staining procedures were performed using primary and secondary antibodies. After staining, a drop of mounting media was applied to the tissue on the slide, and a cover glass was placed over it.
The primary antibodies used in this study are as follows: Isolectin GS-IB4, Alexa Fluor™ 488 conjugate (121411); Collagen I antibody (ab34710); p16INK4a antibody (ab108349); gamma H2A.X antibody (ab2893); p53 antibody (sc-126); p21CIP1 antibody (sc-6246).
Mouse eyes were enucleated, and the anterior segments were removed to isolate the retinal pigment epithelium/choroid/sclera complex. The complex was rinsed with cold PBS and then fixed at room temperature for 20 minutes using the fixative solution provided in the SA-β-galactosidase (SA-β-GAL) staining kit. Staining was performed using the staining solution mixture provided according to the manufacturer's instructions (BioVision; #K320). After overnight staining at 37° C., the samples were incubated at 55° C. for 45 minutes with 10% H2O2 to remove the pigment. Following rinsing with PBS, the samples were flattened using forceps and a surgical knife. Images were captured using a fluorescent microscope (Olympus; BX43).
SA-β-gal staining analysis, an early method for identifying senescent cells in tissues, was used. Additionally, the expression of senescence markers such as p16INK4a, p21CIP1, γ-H2AX, and p53 is increased in senescent cells. […]

subretinal fibrosis = assay: Subretinal fibrosis in laser-induced neovascular wet macular degeneration model (Collagen type I staining, OCT); conditions: for expression of Collagen type 1 compared to the PBS negative control group: 500 mg per kg i.p. daily from three days prior, NMN vs PBS p<0.001, NR vs PBS p<0.002; for production of subretinal fibrosis associated with neovascular macular degeneration: FIG. 3 legend
Method: as §1, §2, §3, §4, §5, §7, §8, §9
For flat mounting, the muscle, cornea, lens, and neural retina were removed. Then, the retinal pigment epithelium/choroid/sclera complex was radially incised eight times to create a petal-like structure. It was placed in a 1 ml microtube and stained with primary and secondary antibodies. […]
as §6

[3] = seventh day post-laser induction, immunofluorescence staining

Molecule | size of neovascularization compared to the PBS control group [1] | aging phenotype induced in a neovascular wet AMD model ([2]; FIG. 2 legend) | SA-β-gal staining of the retinal pigment epithelium/choroid/sclera complex compared to the PBS group ([2]; seventh day post-laser induction, NMN 500 mg per kg i.p. daily) | expression of p16INK4a protein compared to PBS [2, 3] | expression of p21CIP1 protein compared to PBS [2, 3] | expression of p53 protein compared to PBS [2, 3] | expression of γ-H2AX protein compared to PBS [2, 3] | fibrosis by OCT and immunofluorescence staining on sections compared to the negative control group (subretinal fibrosis; 28th day post-laser shock, 500 mg per kg i.p. daily) | expression of Collagen type 1 compared to the PBS negative control group (subretinal fibrosis; 28th day post-laser shock) | production of subretinal fibrosis associated with neovascular macular degeneration (subretinal fibrosis) | neovascular size compared to the NMN and NR groups ([1]; Aflibercept vs NMN p>0.99, Aflibercept vs NR p>0.99)
nicotinamide mononucleotide [NMN] | significantly reduced | inhibits | reduced | decreased | decreased | decreased | decreased | reduced | significantly reduced | inhibit | –
Aflibercept [reference compound] | significant reduction | – | – | – | – | – | – | – | – | – | no significant difference
NC(=O)c1ccc[n+]([C@@H]2O[C@H](CO)[C@@H](O)[C@H]2O)c1 [NR, nicotinamide riboside] | significantly reduced | – | – | – | – | – | – | – | significantly reduced | inhibit | –

Source: patent publication US20250170118A1, “PHARMACEUTICAL COMPOSITION FOR PREVENTING OR TREATING WET AGE-RELATED MACULAR DEGENERATION” (UIF (University Industry Foundation), Yonsei University, priority 2023, published 2025)
